Assay type in all cases: cell-based, human
The subject of experiment [1] is Drop1 mRNA in cell lines exhibiting a low level of Drop1 (GG and M130). The experiment is described as follows: Treatment of cell lines exhibiting a low level of Drop1 with demethylating agents. As for the experimental part: (§1) Treatment of cells with methyltransferase inhibitors was carried out as described by Widschwendter et al., J. Nat. Cancer Inst. 92 (2000), 826-832). All-trans-retinoic acid (ATRA) and 5-aza-deoxycytidine (Aza-CdR) were from Sigma Chemical Co. (St. Louis, Mo.). 1 mM solutions were prepared in dimethyl sulfoxide and diluted in culture medium. Cells were incubated either for 5 days, with […] Aza-CdR, for 24 h with […], or for 5 days with […] Aza-CdR followed by 24 h with 1 mM ATRA, or left untreated. They were detached with trypsin (0.05%)-EDTA (0.02%) in Dulbecco's phosphate-buffered saline (PBS), washed, and pelleted.
(§2) The possibility that promoter methylation might downregulate Drop1 was investigated.

The test system of experiment [2] is Drop1 expression in M130 cells. The experiment is described as follows: Treatment of cells with methyltransferase inhibitors, Drop1 expression by quantitative PCR. As for the experimental part:
(§3) The differential expression was validated by quantitative PCR and analyzed in the Agilent 2100 Bioanalyzer (Agilent Technologies, Waldbronn, Germany, PC Hewlett packard, Vectra VL, Hewlett packard, Boeblingen; Software Agilent 2100 Bio Sizing 1.3, Agilent Technologies, Waldbronn) or by semi-quantitative analysis of the resulting cDNA on a 2% agarose gel.
(§4) • 1 μl cDNA of the 20 μl RT-mixture (corresponding to 0.5 ng of cDNA); • 1 μl Drop1 Upper primer (5′ […] ATA 3′ corresponding to positions 8255-8278 in exon 53), 20 μM; • 1 μl Drop1 Lower primer (Lower primer 5′ […] 3′, complementary to positions 8500-8473 in exon 55), 20 μM; • 5 μl cDNA-PCR reaction buffer, 10×; • 1 μl dNTP-Mix, 10 mM; • 1 μl advantage-cDNA-polymerase mix, 50×;
(§5) Steps 1 to 3 were repeated 34 to 46 times. After individual cycles in that range, aliquots were removed and run on a gel. The amount of PCR-product from the first cycle producing a visible band of 246 bp was then quantitated using the Agilent system and an intercalating dye to detect double-stranded DNA. Under these conditions, quantitative PCR detected Drop1 plus enaptin, yet not cpg2, and the various nexins.
as §1, §2

The test system of experiment [3] is Drop1 expression in GG cells. The experiment is described as above. The method, then:
as §3, §4, §5, §1, §2

The subject of experiment [4] is Drop1 expression in SKOV-3 cells. Described as above. As for the experimental part: as §3, §4, §5, §1, §2
Where [5] appears, read: 5 days 2.5 mM Aza-CdR, 24 h 1 mM ATRA, or 5 days Aza-CdR followed by 24 h ATRA.

Each structure is given as a SMILES string.

Regarding `CC1=C(/C=C/C(C)=C/C=C/C(C)=C/C(=O)O)C(C)(C)CCC1` [ATRA, all-trans-retinoic acid], the “Increase of Drop1 mRNA” value in experiment [1] is on record as “an order of magnitude”. The results for the “Increase of Drop1 expression versus cells in medium” value in experiment [2] and in experiment [3] were 18 fold and 2.5 fold, respectively. Also, the “Expression of downregulated Drop1 in cells treated with inhibitors of gene methylation” value in experiment [2] (setting [5]) is on record as 1.8 × 10^−2; in experiment [3] (setting [5]), 1.3 × 10^−4; in experiment [4] (SKOV-3 cells, 5 days 2.5 mM Aza-CdR, 24 h 1 mM ATRA, or 5 days Aza-CdR followed by 24 h ATRA) it was 2.2 × 10^−4. Besides, in experiment [4] (SKOV-3, a cell line with a physiological level of Drop1), the “Increase of Drop1 expression” value is recorded as “No increase of expression”.

The values above are taken from patent US20070093436A1, “Drop1, a novel marker for carcinogenesis” (Deutsches Kresforschungszentrum Stiftung Des Offentlichen …, priority 2003, published 2007).
